According to patent US9029332B2, “Cross-linked peptides and proteins, methods of making same, and uses thereof” (The Research Foundation for The State University of New York, priority 2010, dated 2015):
Numbered stars: 1 amine (or outer) side, 2 acyl side, 3 side chain; on linkers, the order of the positions; unused ones are H or OH. Bridge positions count the residues as written; N and C are the ends. Square brackets hold non-standard residues; d marks the D form. Ends that are not written are not given here. Peptide text beside a SMILES is read from it. BMA = bismethylene aryl moiety linked through two thioether bonds; CH2(3,3'-bipyridine-6,6')CH2 = c1cc(C[*:1])ncc1-c1ccc(C[*:2])nc1; Biphenyl(4,4'-CH2)2 = c1cc(-c2ccc(C[*:2])cc2)ccc1C[*:1]

Key:
[1] = molecular target: T1, full-length human MDMX (GST-MDMX) (Homo sapiens, UniProt O15151); assay: ELISA, inhibition of p53-MDMX interaction; format: binding; details: relative to linear counterpart 3
T1 construct: GST-MDM2 and GST-MDMX containing full-length human MDM2 and MDMX; made in house; host or cells: Escherichia coli
T1 sequence (O15151 1-490): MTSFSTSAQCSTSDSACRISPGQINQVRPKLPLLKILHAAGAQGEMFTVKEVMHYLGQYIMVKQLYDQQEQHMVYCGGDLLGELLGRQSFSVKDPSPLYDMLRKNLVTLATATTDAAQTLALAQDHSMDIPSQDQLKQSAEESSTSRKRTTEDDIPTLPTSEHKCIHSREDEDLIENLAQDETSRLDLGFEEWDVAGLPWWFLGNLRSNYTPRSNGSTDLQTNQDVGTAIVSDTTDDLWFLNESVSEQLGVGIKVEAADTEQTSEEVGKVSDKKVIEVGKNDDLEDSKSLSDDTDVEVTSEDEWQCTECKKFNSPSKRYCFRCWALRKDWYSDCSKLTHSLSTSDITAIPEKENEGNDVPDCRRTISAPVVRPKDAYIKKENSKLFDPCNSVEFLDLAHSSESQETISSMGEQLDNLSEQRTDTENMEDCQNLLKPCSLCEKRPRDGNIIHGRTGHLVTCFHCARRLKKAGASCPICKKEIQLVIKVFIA
Description: FIG. 10. ELISA data of the cross-linked PDI analogs. The experiments were repeated three times and the resulting data were plotted with GraphPad Prism 5.0 to derive the average IC50 values along with standard deviations.
ELISA Assay. GST-MDM2 and GST-MDMX containing full-length human MDM2 and MDMX and His6-tagged human p53 were expressed in Escherichia coli and purified by glutathione agarose and Ni^2+-nitrilotriacetic acid beads, respectively, under non-denaturing conditions. Microtiter plates were coated with 2.5 μg/ml His6-p53 in PBS buffer for 16 hours. After washing with PBS containing 0.1% Tween-20 (PBST), the plates were blocked with PBST containing 5% nonfat dry milk (PBSTM) for 30 minutes. Peptides were dissolved in DMSO. GST-MDM2 and MDMX (5 μg/ml) were mixed with peptides in PBSMT containing 10% glycerol and 10 mM dithiolthreitol prior to their additions to the wells at the specified concentrations. The incubation was allowed to proceed for 1 hour at room temperature before the plates were washed with PBST. […] The plates were developed by incubation with TMB peroxidase substrate (KPL, Gaithersburg, Md.) and measured by absorbance at 450 nm. The data was analyzed with the Origin 6.0 software. […]

HeLa cells [2] = assay: Cell viability assay (CellTiter-Glo, ATP) and DIC imaging, cytotoxicity; format: cell-based; details: 10 μM, 2 hours; DIC channel and ATP assay
Protocol: FIG. 8. (a) Confocal images of fixed HeLa cells after treatment with 10 μM of fluorescein-conjugated peptides for 2 hours. Scale bar=50 μm. (b) Cell viability assay using the CellTiter-Glo reagent.
Cell Viability Assay. HeLa cells were seeded into an opaque 96-well plate at a density of 1×10^4 per well in 100 μL DMEM medium supplemented with 10% FBS and the cells were allowed to grow in a 37° C. 5% CO2 incubator for 48 hrs to reach confluency of around 80%. Prior to the compound treatment, the medium was replaced with serum-free medium and the cells were incubated for 30 minutes. Appropriate amounts of peptides (1 mM in DMSO) were then added to obtain a final concentration of 10 μM and the cells were incubated at 37° C. for 2 hours. Afterwards, the plate was allowed to stand at room temperature for 30 minutes before 100 μL of Cell-Titer Glow reagent (Promega) was added. The plate was incubated at room temperature for 10 minutes. The luminescence signals were recorded with an FLX 800 luminescence plate reader (BioTek). The plotted data represented the average of the readings from 4 separate wells.

HeLa cells [3] = assay: FACS analysis of cell permeability of fluorescein-conjugated peptides; format: cell-based; details: 10 μM fluorescein-conjugated peptide, 2 h
Protocol: FACS Analysis. HeLa Cells were cultured in DMEM medium supplemented with 10% fetal bovine serum in 6-well plate in a 37° C., 5% CO2 incubator to reach confluency of around 70%. The cells were then washed twice with PBS before switching to serum-free DMEM medium. After standing in the incubator for 30 minutes, appropriate amounts of peptides (1 mM in DMSO) were added to the culture plate to obtain a final peptide concentration of 10 μM. Cells were incubated at 37° C. for additional 2 hrs. Then the medium was removed and the cells were washed with PBS (3×) followed by treatment with trypsin to detach the cells. After a brief low-speed centrifugation, the HeLa cells were collected and re-suspended in PBS for the FACS analysis.

GST-Bcl-xL = GST-Bcl-xL (Homo sapiens, UniProt Q07817); assay: FP binding affinity of fluorescein-labeled peptides, Bcl-xL
Mcl-1 [4] = molecular target: Mcl-1 (Mus musculus, UniProt P97287); details: background literature; read-out: IC50 against Mcl-1; cited from earlier work
[5] = Circular dichroism, percent helicity; format: physicochemical; details: compared to the linear NoxaBH3 peptide, 50 μM in 20% ACN/H2O
Protocol: FIG. 12. […] The peptides were dissolved in 20% ACN/H2O for a final concentration of 50 μM.
Circular Dichroism Study. […] The spectra were recorded in the wavelength range of 190-250 nm and averaged over 3 scans with a resolution of 0.5 nm, a bandwidth of 1.0 nm and a response time of 4 s. The sensitivity and the speed of the spectrometer were set to 100 mdeg and 50 nm/min, respectively. All peptides were dissolved in 20% acetonitrile/H2O to reach final concentration of 50 μM.

GST-Mcl-1 = GST-Mcl-1 (Homo sapiens, UniProt Q07820); assay: Competitive fluorescence polarization assay; format: binding; details: for IC50: Noxa peptides, three repeats ± SD, read-out: FP, IC50
Protocol: Competitive Florescence Polarization Assay. The binding affinity of the Noxa peptides toward GST-Mcl-1 was determined in a competitive fluorescence polarization assay with the fluorescein-labeled Bak or Bim. Briefly, fluorescein-labeled Bak was incubated with GST-Mcl-1 in a binding buffer (PBS, 0.005% Tween-20, pH7.4) at room temperature in a 96-well microtiter plate. […] The reading was repeated at various time points to ensure that the competition has reached equilibrium.

Mcl-1 [6] = molecular target: Mcl-1 (Homo sapiens, UniProt Q07820); assay: ELISA of cross-linked Noxa peptides; format: binding
chymotrypsin = chymotrypsin (Bos taurus, UniProt P00766); assay: Chymotrypsin proteolytic stability assay; details: cattle (bovine), chymotrypsin (Type II, Sigma) in NH4HCO3 buffer, pH 8
Protocol: Proteolytic stability of the linear and stapled Noxa peptides against trypsin (Type IX-S, 13,000-20,000 unit/mg, Sigma) and chymotrypsin (Type II, 40 unit/mg, Sigma). To a solution of 400 μL of 0.25 mM peptide in NH4HCO3 buffer, pH 8.0, was added 80 μL trypsin (5 μg/mL) or chymotrypsin (25 μg/mL), and the resulting solution was incubated at 37° C. At the indicated times, 40 μL of the solution was transferred to 40 μL trifluoroacetic acid to quench the reaction. The samples were analyzed by reverse-phase HPLC using benzophenone as an injection control.

Chain of GST-Mcl-1 (Q07820 whole entry): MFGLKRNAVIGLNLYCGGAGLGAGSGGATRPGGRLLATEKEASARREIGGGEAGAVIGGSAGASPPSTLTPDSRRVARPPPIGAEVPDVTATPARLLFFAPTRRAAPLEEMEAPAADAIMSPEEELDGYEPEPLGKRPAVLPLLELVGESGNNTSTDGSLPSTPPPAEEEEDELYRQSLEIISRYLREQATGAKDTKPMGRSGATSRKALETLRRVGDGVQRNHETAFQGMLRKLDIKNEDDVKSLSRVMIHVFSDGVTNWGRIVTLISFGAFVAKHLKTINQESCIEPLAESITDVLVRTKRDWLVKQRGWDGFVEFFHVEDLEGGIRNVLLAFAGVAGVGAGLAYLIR
Chain of Mcl-1 (Homo sapiens, UniProt Q07820) (Q07820 whole entry, species assumed): as the sequence (Q07820 whole entry) above
Chain of Mcl-1 (Mus musculus, UniProt P97287) (P97287 152-308 limits assumed): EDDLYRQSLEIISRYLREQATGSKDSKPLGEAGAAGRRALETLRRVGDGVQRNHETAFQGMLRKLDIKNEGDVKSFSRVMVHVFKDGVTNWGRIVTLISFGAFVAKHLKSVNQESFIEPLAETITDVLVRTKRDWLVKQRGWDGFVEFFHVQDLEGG
Chain of GST-Bcl-xL (Q07817 whole entry): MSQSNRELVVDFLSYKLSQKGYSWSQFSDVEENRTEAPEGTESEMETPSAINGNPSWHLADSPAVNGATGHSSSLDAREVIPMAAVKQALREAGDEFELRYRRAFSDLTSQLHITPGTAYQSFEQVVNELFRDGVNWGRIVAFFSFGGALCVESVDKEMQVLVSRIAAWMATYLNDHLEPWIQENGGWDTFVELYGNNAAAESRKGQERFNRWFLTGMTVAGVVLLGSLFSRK

Compound: CC(=O)N[C@@H](CC(C)C)C(=O)N[C@H](C(=O)N[C@@H](Cc1ccccc1)C(=O)N[C@@H]1CSCc2ccc(cn2)-c2ccc(nc2)CSC[C@@H](C(=O)N[C@@H](CO)C(N)=O)NC(=O)[C@H](CC(C)C)NC(=O)[C@H](CCC(N)=O)NC(=O)[C@H](C)NC(=O)[C@H](Cc2c[nH]c3ccccc23)NC(=O)[C@H](Cc2ccc(O)cc2)NC(=O)[C@H](Cc2c[nH]cn2)NC1=O)[C@@H](C)O [Peptide 3b, LTFc″HYWAQLC″S] (Ac-LTF[dC]HYWAQLCS-NH2; linker 4-11 via CH2(3,3'-bipyridine-6,6')CH2)
- increase in MDMX activity [1]: 24 fold
- cytotoxicity (HeLa cells [2]): did not show any cytotoxicity

Compound: CC(=O)N[C@@H](CC(C)C)C(=O)N[C@H](C(=O)N[C@@H](Cc1ccccc1)C(=O)N[C@@H](CS)C(=O)N[C@@H](Cc1c[nH]cn1)C(=O)N[C@@H](Cc1ccc(O)cc1)C(=O)N[C@@H](Cc1c[nH]c2ccccc12)C(=O)N[C@@H](C)C(=O)N[C@@H](CCC(N)=O)C(=O)N[C@@H](CC(C)C)C(=O)N[C@@H](CS)C(=O)N[C@@H](CO)C(N)=O)[C@@H](C)O [Peptide 1] (Ac-LTFCHYWAQLCS-NH2)
- cell penetration (HeLa cells [3]; relative to DMSO control): minimal cell penetration

Compound: CC[C@H](C)[C@H](NC(=O)[C@H](CCCNC(=N)N)NC(=O)[C@H](CCCNC(=N)N)NC(=O)[C@H](CC(C)C)NC(=O)[C@H](CCC(N)=O)NC(=O)[C@H](C)NC(=O)[C@H](C)NC(=O)CCCCCNC(=S)Nc1ccc2c(c1)C(=O)OC21c2ccc(O)cc2Oc2cc(O)ccc21)C(=O)NCC(=O)N[C@@H](CC(=O)O)C(=O)N[C@@H](CCCCN)C(=O)N[C@H](C(=O)N[C@@H](CC(N)=O)C(=O)N[C@@H](CC(C)C)C(=O)N[C@@H](CCCNC(=N)N)C(=O)N[C@@H](CCC(N)=O)C(=O)N[C@@H](CCCCN)C(=O)N[C@@H](CC(C)C)C(=O)N[C@@H](CC(C)C)C(=O)N[C@@H](CC(N)=O)C(N)=O)C(C)C [Fl-NoxaB^75-93-C75A]
- Kd (GST-Bcl-xL): > 2000 nM

Compound: CC(=O)N[C@@H](CC(C)C)C(=O)N[C@H](C(=O)N[C@@H](Cc1ccccc1)C(=O)N[C@H]1CSCc2ccc(cn2)-c2ccc(nc2)CSC[C@@H](C(=O)N[C@@H](CO)C(N)=O)NC(=O)[C@H](CC(C)C)NC(=O)[C@H](CCC(N)=O)NC(=O)[C@H](C)NC(=O)[C@H](Cc2c[nH]c3ccccc23)NC(=O)[C@H](Cc2ccc(O)cc2)NC(=O)[C@H](Cc2c[nH]cn2)NC1=O)[C@@H](C)O [Peptide 1b, LTFC″HYWAQLC″S] (Ac-LTFCHYWAQLCS-NH2; linker 4-11 via CH2(3,3'-bipyridine-6,6')CH2; C-terminus assumed)
- increase in mean fluorescence by Bpy cross-linking (HeLa cells [3]; over linear counterpart): ~6 fold
- cytotoxicity (HeLa cells [2]): did not show any cytotoxicity

Compound: NoxaA-(16-41): BH3 peptide derived from mouse Noxa (RAELPPEFAAQLRKIGDKVYCTWSAP; UniProt Q9JM54 16-41, looked up, fragment)
- IC50 (Mcl-1 [4]): 87 nM

Compound: CC(=O)N[C@@H](CC(C)C)C(=O)N[C@H](C(=O)N[C@@H](Cc1ccccc1)C(=O)N[C@@H]1CSCc2ccc(cc2)-c2ccc(cc2)CSC[C@@H](C(=O)N[C@@H](CO)C(N)=O)NC(=O)[C@H](CC(C)C)NC(=O)[C@H](CCC(N)=O)NC(=O)[C@H](C)NC(=O)[C@H](Cc2c[nH]c3ccccc23)NC(=O)[C@H](Cc2ccc(O)cc2)NC(=O)[C@H](Cc2c[nH]cn2)NC1=O)[C@@H](C)O [Peptide 3a, LTFc′HYWAQLC′S] (Ac-LTF[dC]HYWAQLCS-NH2; linker 4-11 via Biphenyl(4,4'-CH2)2)
- increase in MDMX activity [1]: 15 fold

Compound: NoxaB-(68-93): BH3 peptide derived from mouse Noxa (PADLKDECAQLRRIGDKVNLRQKLLN; UniProt Q9JM54 68-93, looked up, fragment)
- IC50 (Mcl-1 [4]): 109 nM

Compound: LTFCRYWARLCS (LTFCRYWARLCS-NH2; linker 4-11 via BMA (inferred); not fully specified) [Peptide 2, linear arginine-substituted dicysteine PDI analog]
- increase in mean fluorescence / permeability by arginine substitution (HeLa cells [3]; compared to charge-neutral counterpart): 2.5 fold

Compound: CC[C@H](C)[C@@H]1NC(=O)[C@H](CCCNC(=N)N)NC(=O)[C@H](CCCNC(=N)N)NC(=O)[C@H](CC(C)C)NC(=O)[C@@H](NC(=O)[C@H](C)NC(=O)[C@H](C)NC(C)=O)CSCc2ccc(cc2)-c2ccc(cc2)CSC[C@@H](C(=O)N[C@H](C(=O)N[C@@H](CC(N)=O)C(=O)N[C@@H](CC(C)C)C(=O)N[C@@H](CCCNC(=N)N)C(=O)N[C@@H](CCC(N)=O)C(=O)N[C@@H](CCCCN)C(=O)N[C@@H](CC(C)C)C(=O)N[C@@H](CC(C)C)C(=O)N[C@@H](CC(N)=O)C(N)=O)C(C)C)NC(=O)[C@H](CC(=O)O)NC(=O)CNC1=O [Peptide 5a]
- enhancement in percent helicity [5]: roughly 2 fold
- IC50 (GST-Mcl-1): 18 ± 6 nM
- increase in activity in FPA (GST-Mcl-1; compared to the parent linear peptide): 67 fold
- IC50 (Mcl-1 [6]): 75 nM

Compound: CC[C@H](C)[C@@H]1NC(=O)[C@H](CCCNC(=N)N)NC(=O)[C@H](CCCNC(=N)N)NC(=O)[C@H](CC(C)C)NC(=O)[C@@H](NC(=O)[C@H](C)NC(=O)[C@H](C)NC(C)=O)CSCc2ccc(cn2)-c2ccc(nc2)CSC[C@@H](C(=O)N[C@H](C(=O)N[C@@H](CC(N)=O)C(=O)N[C@@H](CC(C)C)C(=O)N[C@@H](CCCNC(=N)N)C(=O)N[C@@H](CCC(N)=O)C(=O)N[C@@H](CCCCN)C(=O)N[C@@H](CC(C)C)C(=O)N[C@@H](CC(C)C)C(=O)N[C@@H](CC(N)=O)C(N)=O)C(C)C)NC(=O)[C@H](CC(=O)O)NC(=O)CNC1=O [Peptide 5b]
- enhancement in percent helicity [5]: roughly 2 fold
- IC50 (GST-Mcl-1): 45 ± 9 nM
- IC50 (Mcl-1 [6]): 25 nM
- half-life at 0.208 mM (chymotrypsin): 22 min
